Assay results: patent publication US20130310347A1, “MULTI-MODALITY MOLECULAR IMAGING HIGH-THROUGHPUT ASSAY FOR IDENTIFYING HEAT SHOCK PROTEIN 90 (HSP90) INHIBITORS” (The Board of Trustees of the Leland Stanford Junior …, priority 2012, published 2013)

Experiments:
[1] = Body weight of treated mice; format: in vivo; conditions: 43 h; P>0.05
Hsp90α/p23 interactions = target: T1, Hsp90α/p23 interactions (Homo sapiens, UniProt P07900); experiment: RL/FL bioluminescence imaging of 293T xenografts in living mice; format: in vivo; conditions: CP9 80 mg/kg i.p.
T1 construct: expressed in transfected cells; also with FL-eGFP reporter (293Tα-FG) and as xenografts in nude mice
Procedure: (§1) Maximum radiance (photons/sec/cm^2/sr) from RL signals was normalized to that of FL signals at each site and at each time point to account for the effect of CP9 on cell proliferation. The RL/FL ratios were normalized to that of time 0 h to monitor the individual change in Hsp90(α/β)/p23 interactions in each mouse over time. Results were expressed as mean±S.E.M for the control and treatment groups for Hsp90α/p23 (left panel) and Hsp90β/p23 interactions (right panel).
(§2) To monitor the inhibition of Hsp90(α/β)/p23 interactions by CP9 in living mice, a second reporter (FL-eGFP) was introduced into the 293T cells stably expressing Hsp90(α/β)/p23 split RL reporters (now referred as 293T(α/β)—FG cells). Although ^18F-FLT has also been used to monitor tumor cell proliferation in small animals by PET (Tseng et al., (2005) J. Nucl. Med. 46: 1851-1857), FL imaging was used because of the higher sensitivity and ease of performing sequentially with RL imaging for Hsp90(α/β)/p23 interactions. […] Baseline RL and FL signals in each implanted tumor were determined upon i.v. substrate injection.
(§3) Based on experience with the Hsp90 inhibitors 17-AAG and PU-H71, CP9 (80 mg/kg) (n=5) was tested in animal experiments by i.p. injection with four doses at […] post baseline imaging (FIG. 7A). An equal volume of DMSO was injected into the carrier control group (n=5, FIG. 7B). Mice treated with 75 mg/kg PU-H71 (n=2) served as positive controls. Mice were re-imaged for Hsp90(α/β)/p23 interactions and cell proliferation via RL (FIG. 5B, left panels) and FL (FIG. 5B, right panels) imaging at the time points indicated, respectively. To account for the effect of cell number on Hsp90(α/β)/p23 interactions, RL signals were normalized to FL signals for each tumor at each time point, prior to normalization to that of time 0 h.
(§4) Mice were gas anesthetized using isofluorane (2% in 100% oxygen, 1 L/min) during all injection and imaging procedures and kept at 37° C. Mice were imaged using a cooled CCD camera (IVIS 200, Caliper Life Sciences, Mountain View, Calif.). […] Baseline RL activities in the implanted tumors in living mice were determined by i.v. injection of 30 μg cltz (in 150 μl of 5% ethanol: 95% PBS) and image acquisition of 3 mins. After a 30 mins wait for RL signals to decay, FL activities were determined by i.v. injection of 163 μg of D-Luc in 100 μl PBS with image acquisition of 10 sequences for 15 sec each to obtain the peak max radiance. […] Maximum radiance of RL was divided by that of FL signals at each time point, prior to normalization to that of time 0 hr for each individual mouse, and expressed as average radiance±S.E.M for each treatment group.

Hsp90β/p23 interactions = target: T2, Hsp90β/p23 interactions (Homo sapiens, UniProt P08238); experiment: as above; format: in vivo; conditions: CP9 80 mg/kg i.p., p>0.05
T2 construct: expressed in transfected cells; also with FL-eGFP reporter (293Tβ-FG) and as xenografts in nude mice
Procedure: as §1, §2, §3, §4

1975, 2008, HT29 cells = experiment: 3H-FLT cell uptake (mammalian thymidine kinase activities); format: cell-based; conditions: 48 h post treatment
Procedure: FIG. 10D is a graph illustrating the effect of CP9 on mammalian thymidine kinase activities in 1975, 2008, HT29, and MEFs cells as determined by ^3H-FLT cell uptake studies 48 h post treatment. Results were expressed as mean counts per minute/μg protein/initial dose±S.E.M. *, p<0.05 vs. carrier control treated cells.
To determine the specificity of CP9 in inhibition of glucose metabolism, normal MEF cells were used as a control.
To determine the downstream effects of lead compounds on glucose metabolism, 1.5×10^5 293T, 1975 and 2008 and MEFs cells plated in 24-well plate for 24 h, prior to treatment with different concentrations of CP9 for 24 or 48 h and subsequent incubation with 1 μCi of ^3H-FDG in 500 μl of medium for 1 h at 37° C. Cells treated with 2.5 μM of PU-H71 served as a positive control. The total counts in each sample were normalized to that of the dose added to each well and to the amount of protein, and expressed as mean counts/dose/μg protein±S.E.M. Likewise, the effect of CP9 on cell proliferation was determined using 1 μCi of ^3H-FLT per well after 2 h of incubation at 37° C.

T2 sequence (P08238 whole entry): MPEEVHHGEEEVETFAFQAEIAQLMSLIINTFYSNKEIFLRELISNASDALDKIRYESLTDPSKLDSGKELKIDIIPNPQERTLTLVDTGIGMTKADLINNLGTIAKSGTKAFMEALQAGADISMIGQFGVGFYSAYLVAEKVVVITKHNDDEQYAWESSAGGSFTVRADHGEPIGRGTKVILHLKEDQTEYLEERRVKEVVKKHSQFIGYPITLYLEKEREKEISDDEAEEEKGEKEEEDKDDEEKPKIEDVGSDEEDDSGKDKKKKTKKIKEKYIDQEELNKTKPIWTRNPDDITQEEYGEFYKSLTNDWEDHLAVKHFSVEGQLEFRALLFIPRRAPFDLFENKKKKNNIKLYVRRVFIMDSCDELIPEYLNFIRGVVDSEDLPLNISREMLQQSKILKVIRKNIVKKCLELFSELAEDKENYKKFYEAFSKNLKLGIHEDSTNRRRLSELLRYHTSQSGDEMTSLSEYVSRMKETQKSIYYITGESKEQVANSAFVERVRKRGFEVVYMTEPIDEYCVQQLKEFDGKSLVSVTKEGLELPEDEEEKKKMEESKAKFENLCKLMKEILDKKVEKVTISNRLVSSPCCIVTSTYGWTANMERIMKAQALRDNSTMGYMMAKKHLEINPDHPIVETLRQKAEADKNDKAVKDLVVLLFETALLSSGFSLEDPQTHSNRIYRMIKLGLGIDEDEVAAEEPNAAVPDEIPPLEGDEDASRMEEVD

- RL/FL ratio in Hsp90α/p23 xenografts, normalized to time 0 h (Hsp90α/p23 interactions; 14 h): 122±39%
- RL/FL ratio in Hsp90α/p23 xenografts, normalized to time 0 h (Hsp90α/p23 interactions; 38 h, p<0.05 vs carrier control): 79±19%
- RL/FL ratio in Hsp90β/p23 xenografts, normalized to time 0 h (Hsp90β/p23 interactions; 14 h): 58±18%
- RL/FL ratio in Hsp90β/p23 xenografts, normalized to time 0 h (Hsp90β/p23 interactions; 38 h): 83±42%
Compound: Cc1cc(NC(=O)CSc2nc(-c3cccs3)cc(C(F)(F)F)n2)no1 [CP9, N-(5-methylisoxazol-3-yl)-2-(4-(thiophen-2-yl)-6-(trifluoromethyl)pyrimidin-2-ylthio)acetamide]
- body weight vs carrier control-treated mice [1]: no significant decreases in weight
- 3H-FLT uptake in cancer cell lines (1975, 2008, HT29 cells): inhibits
